Assay results as given in ChEMBL document CHEMBL1158248, “Pessoine and spinosine, two catecholic berbines from Annona spinescens” (1996).

Columns and labels:
Type in all cases: functional
Trypanosoma cruzi = experiment: Trypanocidal activity against Trypanosoma cruzi trypomastigote assessed as lysis of trypomastigotes at 250 ug/mL after 24 hrs relative to control
Leishmania donovani [1] = experiment: Antileishmanial against Leishmania donovani promastigote PP-75 assessed as total lysis of parasites after 48 hrs
Leishmania amazonensis [2] = experiment: Antileishmanial against Leishmania amazonensis promastigote LV 79 assessed as total lysis of parasites after 48 hrs
Leishmania braziliensis [3] = experiment: Antileishmanial against Leishmania brasiliensis 2903 promastigote assessed as total lysis of parasites after 48 hrs
Leishmania amazonensis [4] = experiment: Antileishmanial against Leishmania amazonensis promastigote LV 79 assessed as lysis of parasites at 10 ug/mL after 48 hrs
Leishmania donovani [5] = experiment: Antileishmanial against Leishmania donovani promastigote PP-75 assessed as lysis of parasites at 10 ug/mL after 48 hrs
Leishmania donovani [6] = experiment: Antileishmanial against Leishmania donovani promastigote PP-75 assessed as lysis of parasites at 25 ug/mL after 48 hrs
Leishmania braziliensis [7] = experiment: Antileishmanial against Leishmania brasiliensis 2903 promastigote assessed as lysis of parasites at 100 ug/mL after 48 hrs
Leishmania amazonensis [8] = experiment: Antileishmanial against Leishmania amazonensis promastigote LV 79 assessed as lysis of parasites at 50 ug/mL after 48 hrs

Molecule	Activity (Trypanosoma cruzi) [%]	Activity (Leishmania donovani [1]) [µg/mL]	Activity (Leishmania amazonensis [2]) [µg/mL]	further results
COc1cc2c(cc1O)[C@@H]1Cc3cc(O)c(O)cc3CN1CC2	55	–	–	–
COc1cc2c3c(c1O)-c1cc4c(cc1CC3N(C(C)=O)CC2)OCO4 (stereo unspecified) [ACETYLNORDOMESTICINE]	60	–	–	–
c1ccc2c(c1)C[C@H]1NCCc3cc4c(c-2c31)OCO4 [ANONAINE]	99	100	25	Activity (Leishmania braziliensis [3]): 50 µg/mL; Activity (Leishmania amazonensis [4]): 90%; Activity (Leishmania donovani [5]): 90%
CN(C)c1ccc(C(=C2C=CC(=[N+](C)C)C=C2)c2ccc(N(C)C)cc2)cc1.[Cl-] [GENTIAN VIOLET]	100	–	–	–
O=C1c2ccccc2-c2c3c(cc4ccnc1c24)OCO3 [LIRIODENINE]	50	100	100	Activity (Leishmania donovani [6]): 90%; Activity (Leishmania braziliensis [7]): 90%; Activity (Leishmania amazonensis [8]): 90%
COC(=O)/C=C/c1cc(OC)c(O)c(OC)c1 [METHYL SINAPATE]	44	–	–	–
COc1cc2c(cc1O)-c1c(O)c(OC)cc3c1[C@H](C2)NCC3 [NORBRACTEOLINE]	62	–	–	–
COc1cc2c3c(c1OC)C1(C=CC(=O)C=C1)C[C@@H]3NCC2 [STEPHARINE]	65	–	–	–
MEGLUMINE ANTIMONATE	–	> 100	> 100	Activity (Leishmania braziliensis [3]): > 100 µg/mL
